ChEMBL document CHEMBL6127136, “Discovery of 1-(Phenylsulfonyl)-1,2,3,4-tetrahydroquinoline Derivative as Orally Bioavailable and Safe RORγt Inverse Agonists for Potential Treatment of Rheumatoid Arthritis” (J Med Chem, 2024)
Active and inactive are the calls of the source. No cut-off for these calls is given here.

How the values were obtained:
[1] = test system: Mus musculus; assay: Antiinflammatory activity against imiquimod-induced psoriasis-like skin inflammation in Balb/c mouse model assessed as reduction in IL-23 level in peripheral blood preadministered with IMQ for 3 days followed by intragastric compound administration from day 4 and measured on day 13 by ELISA; format: functional, organism-based; conditions: dose 5-15 mg/kg, route ig, time 10.0 day
[2] = Tmax in male DBA/1 mouse at 5 mg/kg, iv measured after 24 hrs by HPLC analysis; format: ADME, organism-based; conditions: in vivo
[3] = test system: Mus musculus; assay: Antiinflammatory activity against imiquimod-induced psoriasis-like skin inflammation in Balb/c mouse model assessed as decrease in IL-23 expression in skin at 15 mg/kg, IG preadministered with IMQ for 3 days followed by compound administration from day 4 and measured on day 14 by immunohistochemical analysis; format: functional, organism-based; conditions: time 11.0 day
[4] = test system: Mus musculus; assay: Antiinflammatory activity against imiquimod-induced psoriasis-like skin inflammation in Balb/c mouse model assessed as reduction in IL-17F level in peripheral blood preadministered with IMQ for 3 days followed by intragastric compound administration from day 4 and measured on day 13 by ELISA; format: functional, organism-based; conditions: dose 5-15 mg/kg, route ig, time 10.0 day
[5] = test system: Mus musculus; assay: Antiinflammatory activity against imiquimod-induced psoriasis-like skin inflammation in Balb/c mouse model assessed as decrease in IL-17A expression in skin at 15 mg/kg, IG preadministered with IMQ for 3 days followed by compound administration from day 4 and measured on day 14 by immunohistochemical analysis; format: functional, organism-based; conditions: time 11.0 day
[6] = test system: Mus musculus; assay: Antiinflammatory activity against imiquimod-induced psoriasis-like skin inflammation in Balb/c mouse model assessed as decrease in IL-17F expression in skin at 15 mg/kg, IG preadministered with IMQ for 3 days followed by compound administration from day 4 and measured on day 14 by immunohistochemical analysis; format: functional, organism-based; conditions: time 11.0 day
[7] = target: T1, Nuclear receptor ROR-gamma (Homo sapiens, UniProt P51449); assay: Inverse agonist activity at N-terminal 6-His-tagged/APC-labeled human RORgammat LBD extracted from Escherichia coli assessed as inhibition of europium-labeled SRC-1 recruitment incubated for 3 hrs by TR-FRET analysis
T1 sequence (P51449 whole entry): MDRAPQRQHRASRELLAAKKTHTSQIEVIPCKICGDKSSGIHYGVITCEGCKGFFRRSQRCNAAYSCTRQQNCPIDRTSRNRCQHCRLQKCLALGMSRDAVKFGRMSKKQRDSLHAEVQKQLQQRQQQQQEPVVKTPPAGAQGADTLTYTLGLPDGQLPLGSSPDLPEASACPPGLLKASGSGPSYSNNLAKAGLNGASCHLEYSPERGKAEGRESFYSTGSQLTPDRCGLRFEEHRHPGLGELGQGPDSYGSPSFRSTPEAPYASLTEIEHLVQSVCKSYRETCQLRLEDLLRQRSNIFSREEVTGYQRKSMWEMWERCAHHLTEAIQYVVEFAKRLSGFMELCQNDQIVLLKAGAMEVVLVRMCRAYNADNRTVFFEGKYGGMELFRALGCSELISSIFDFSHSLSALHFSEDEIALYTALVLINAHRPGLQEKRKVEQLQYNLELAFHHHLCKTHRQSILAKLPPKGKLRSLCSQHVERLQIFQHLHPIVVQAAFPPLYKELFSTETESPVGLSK

[8] = Half-life in male DBA/1 mouse at 20 mg/kg, po measured after 24 hrs by HPLC analysis; format: ADME, organism-based; conditions: in vivo
[9] = test system: Mus musculus; assay: Antiinflammatory activity against imiquimod-induced psoriasis-like skin inflammation in Balb/c mouse model assessed as reduction in IL-17A level in peripheral blood preadministered with IMQ for 3 days followed by intragastric compound administration from day 4 and measured on day 13 by ELISA; format: functional, organism-based; conditions: dose 5-15 mg/kg, route ig, time 10.0 day
[10] = Oral bioavailability in male DBA/1 mouse at 20 mg/kg measured after 24 hrs by HPLC analysis; format: ADME, organism-based; conditions: in vivo
[11] = AUC (0 to t) in male DBA/1 mouse at 20 mg/kg, po measured after 24 hrs by HPLC analysis; format: ADME, organism-based; conditions: in vivo
[12] = target: T1, Nuclear receptor ROR-gamma; assay: Inverse agonist activity at GAL4 DNA-binding domain fused RORgamma (unknown origin) transfected in HEK293T cells co-transfected with GAL4-promoter driven luciferase reporter gene assessed as inhibition of RORgammat transcription incubated for 18 to 20 hrs by plate reader analysis; format: cell-based
[13] = test system: Mus musculus; assay: Antiinflammatory activity against imiquimod-induced psoriasis-like skin inflammation in Balb/c mouse model assessed as decrease in dermal telangiectasia at 15 mg/kg, IG preadministered with IMQ for 3 days followed by compound administration from day 4 and measured on day 14 by H and E staining based analysis; format: functional, organism-based; conditions: time 11.0 day
[14] = Cmax in male DBA/1 mouse at 5 mg/kg, iv measured after 24 hrs by HPLC analysis; format: ADME, organism-based; conditions: in vivo
[15] = Clearance in male DBA/1 mouse at 5 mg/kg, iv measured after 24 hrs by HPLC analysis; format: ADME, organism-based; conditions: in vivo
[16] = test system: Mus musculus; assay: Antiinflammatory activity against imiquimod-induced psoriasis-like skin inflammation in Balb/c mouse model assessed as decrease in IL-17F expression in skin preadministered with IMQ for 3 days followed by intragastric compound administration from day 4 and measured on day 14 by immunohistochemical analysis; format: functional, organism-based; conditions: dose 5-15 mg/kg, route ig, time 11.0 day
[17] = Cmax in male DBA/1 mouse at 20 mg/kg, po measured after 24 hrs by HPLC analysis; format: ADME, organism-based; conditions: in vivo
[18] = test system: Mus musculus; assay: Antiinflammatory activity against imiquimod-induced psoriasis-like skin inflammation in Balb/c mouse model assessed as decrease in IL-17A expression in skin preadministered with IMQ for 3 days followed by intragastric compound administration from day 4 and measured on day 14 by immunohistochemical analysis; format: functional, organism-based; conditions: dose 5-15 mg/kg, route ig, time 11.0 day
[19] = AUC (0 to infinity) in male DBA/1 mouse at 5 mg/kg, iv measured after 24 hrs by HPLC analysis; format: ADME, organism-based; conditions: in vivo
[20] = test system: Mus musculus; assay: Antiinflammatory activity against imiquimod-induced psoriasis-like skin inflammation in Balb/c mouse model assessed as reduction in total psoriasis area preadministered with IMQ for 3 days followed by intragastric compound administration from day 4 and measured on day 14; format: functional, organism-based; conditions: dose 10-15 mg/kg, route ig, time 11.0 day
[21] = AUC (0 to t) in male DBA/1 mouse at 5 mg/kg, iv measured after 24 hrs by HPLC analysis; format: ADME, organism-based; conditions: in vivo
[22] = AUC (0 to infinity) in male DBA/1 mouse at 20 mg/kg, po measured after 24 hrs by HPLC analysis; format: ADME, organism-based; conditions: in vivo
[23] = Half-life in male DBA/1 mouse at 5 mg/kg, iv measured after 24 hrs by HPLC analysis; format: ADME, organism-based; conditions: in vivo
[24] = test system: HeLa; assay: Antiproliferative activity against human HeLa cells assessed as inhibition of colony formation at 2 to 8 uM incubated for 7 days by crystal violet staining based light microscopic analysis; format: toxicity, cell-based; conditions: 168 h, dose 2-8 µM, time 7 day
[25] = test system: Mus musculus; assay: Antiinflammatory activity against imiquimod-induced psoriasis-like skin inflammation in Balb/c mouse model assessed as decrease in IL-23 expression in skin preadministered with IMQ for 3 days followed by intragastric compound administration from day 4 and measured on day 14 by immunohistochemical analysis; format: functional, organism-based; conditions: dose 5-15 mg/kg, route ig, time 11.0 day
[26] = test system: Mus musculus; assay: Antiinflammatory activity against imiquimod-induced psoriasis-like skin inflammation in Balb/c mouse model assessed as reduction in total psoriasis severity index preadministered with IMQ for 3 days followed by intragastric compound administration from day 4 and measured on day 14; format: functional, organism-based; conditions: dose 10-15 mg/kg, route ig, time 11.0 day
[27] = Toxicity in imiquimod-induced psoriasis-like skin inflammation Balb/c mouse model assessed as change in body weight at 5 to 15 mg/kg, IG preadministered with IMQ for 3 days followed by compound administration from day 4 and measured on day 14; format: organism-based; conditions: in vivo, po, 264 h, dose 5-15 mg/kg, time 11 day
[28] = Tmax in male DBA/1 mouse at 20 mg/kg, po measured after 24 hrs by HPLC analysis; format: ADME, organism-based; conditions: in vivo
[29] = test system: Mus musculus; assay: Antiinflammatory activity against imiquimod-induced psoriasis-like skin inflammation in Balb/c mouse model assessed as reduction in mononuclear cell infiltration in skin at 15 mg/kg, IG preadministered with IMQ for 3 days followed by compound administration from day 4 and measured on day 14 by H and E staining based analysis; format: functional, organism-based; conditions: time 11.0 day
[30] = test system: Mus musculus; assay: Antiinflammatory activity against imiquimod-induced psoriasis-like skin inflammation in Balb/c mouse model assessed as reduction in inflammatory cell infiltration in skin at 15 mg/kg, IG preadministered with IMQ for 3 days followed by compound administration from day 4 and measured on day 14 by H and E staining based analysis; format: functional, organism-based; conditions: time 11.0 day
[31] = test system: Mus musculus; assay: Antiinflammatory activity against imiquimod-induced psoriasis-like skin inflammation in Balb/c mouse model assessed as attenuation of skin layer thickening at 15 mg/kg, IG preadministered with IMQ for 3 days followed by compound administration from day 4 and measured on day 14 by H and E staining based analysis; format: functional, organism-based; conditions: time 11.0 day
[32] = test system: HUVEC; assay: Antiproliferative activity against HUVEC cells assessed as inhibition of colony formation at 2 to 8 uM incubated for 7 days by crystal violet staining based light microscopic analysis; format: toxicity, cell-based; conditions: human, 168 h, dose 2-8 µM, time 7 day

In the case of `CCC1CCc2cc(C(C)C)ccc2N1S(=O)(=O)c1ccc(OCC2CCOCC2)c(CO)c1` (racemic), the Activity [1] is reported as “Dose-Dependent Effect”, the Tmax [2] is reported as 4.98 min and the Activity [3] is reported as “Active”. The Activity [4] was “Dose-Dependent Effect”, the Activity [5] was “Active” and the Activity [6] was “Active”. The IC50 [7] was 3.5 nM, the half-life [8] was 280 min and the Activity [9] was “Dose-Dependent Effect”. The bioavailability [10] was 48.1%, the AUC(0-t) at 24 h [11] was 1890 ng·h/mL and the IC50 [12] was 21 nM. The Activity [13] was “Active”, the Cmax [14] was 1210 ng/mL and the clearance [15] was 81.9 mL/min/kg. For the same molecule, the Activity [16] was “Dose-Dependent Effect”, the Cmax [17] was 485 ng/mL and the Activity [18] was “Dose-Dependent Effect”. The AUC(0-inf) [19] was 1020 ng·h/mL, the Activity [20] was “Dose-Dependent Effect” and the AUC(0-t) at 24 h [21] was 995 ng·h/mL. For the same molecule, the AUC(0-inf) [22] was 1960 ng·h/mL, the half-life [23] was 232 min and the Activity [24] was “Non-Toxic”. The Activity [25] was “Dose-Dependent Effect”, the Activity [26] was “Dose-Dependent Effect” and the Activity [27] was “Non-Toxic”. For the same molecule, the Tmax [28] was 30 min, the Activity [29] was “Active” and the Activity [30] was “Active”. The Activity [31] was “Active” and the Activity [32] was “Non-Toxic”.
